Results published in US10195201B2, “Heteroaryl-pyrimidinone compounds as PDE2 inhibitors” (Merck Sharp & Dohme Corp., priority 2015, dated 2019).
Read-outs that look alike come from different tables or passages of the source.

Assays:
[1] = molecular target: human PDE2A1 (Homo sapiens (Human), UniProt O00408); test: PDE2 fluorescence polarization (IMAP FP) inhibition assay, human enzyme; format: biochemical
Experimental: (§1) The activity of the compounds in accordance with the present invention as PDE2 inhibitors may be readily determined using a fluorescence polarization (FP) methodology (Huang, W., et al., J. Biomol Screen, 2002, 7: 215).
Selectivity for PDE2, as compared to other PDE families, was assessed using the IMAPR technology. Human PDE10A2 enzyme was prepared from cytosolic fractions of transiently transfected HEK cells. All other PDE's were GST Tag human enzyme expressed in insect cells and were obtained from BPS Bioscience (San Diego, Calif.): PDE1A (Cat#60010), human PDE2A1(Cat#60020), PDE3A (Cat#60030), PDE4A1A (Cat#60040), PDE5A1 (Cat#60050), PDE6C (Cat#60060), PDE7A (Cat#60070), PDE8A1 (Cat#60080), PDE9A2 (Cat#60090), PDE11A4 (Cat#60110).
Assays for PDE 1 through 11 were performed in parallel at room temperature in 384-well microtiter plates with an incubation volume of 20.2 μL. Solutions of test compounds were prepared in DMSO and serially diluted with DMSO to yield 30 μL of each of ten solutions differing by 3-fold in concentration, at 32 serial dilutions per plate. […] A Labcyte POD 810 (Labcyte, Sunnyvale, Calif.) was used to dispense 200 nL from each well of the titration plate to make eleven copies of the assay plate for each titration, one copy for each PDE enzyme. A solution of each enzyme (dilution from aliquots, sufficient to produce 20% substrate conversion) and a separate solution of FAM-labeled cAMP or FAM-labeled cGMP from Molecular Devices (Sunnyvale, Calif., product # R7506 or cGMP#R7508), at a final concentration of 50 nM were made in the assay buffer (10 mM Tris HCl, pH 7.2, 10 mM MgCl2, 0.05% NaN3 0.01% Tween-20, and 1 mM DTT). Note that the substrate for PDE2 is 50 nM FAM cAMP containing 1000 nM of cGMP. The enzyme and the substrate were then added to the assay plates in two consecutive additions of 10 μL and then shaken to mix. The reaction was allowed to proceed at room temperature for 60 minutes. A binding solution was then made from the kit components, comprised of 80% Solution A, 20% Solution B and binding reagent at a volume of 1/600 the total binding solution. The enzymatic reaction was stopped by addition of 60 μL of the binding solution to each well of the assay plate. The plates were sealed and shaken for 10 seconds. The plates were incubated at room temperature for one hour, then the parallel and perpendicular fluorescence was measured using a Tecan Genios Pro plate reader (Tecan, Switzerland). The apparent inhibition constants for the compounds against all 11 PDE's was determined from the parallel and perpendicular fluorescent readings as described for PDE10 FP assay using the following apparent KM values for each enzyme and substrate combination: PDE1A (FAM cGMP) 70 nM, human PDE2A1 (FAM cAMP) 10,000 nM, PDE3A (FAM cAMP) 50 nM, PDE4A1A (FAM cAMP) 1500 nM, PDE5A1 (FAM cGMP) 400 nM, PDE6C (FAM cGMP) 700 nM, PDE7A (FAM cAMP) 150 nM, PDE8A1 (FAM cAMP) 50 nM, PDE9A2 (FAM cGMP) 60 nM, […] (FAM cAMP) 150 nM, PDE11A4 (FAM cAMP) 1000 nM. The intrinsic PDE2 inhibitory activity of a compound which may be used in accordance with the present invention may be determined by these assays. […]

[2] = molecular target: Rhesus PDE2A3 (Macaca mulatta, UniProt B3VTJ2); test: PDE2 fluorescence polarization (IMAP FP) inhibition assay, rhesus enzyme; format: biochemical, rhesus macaque
Experimental: as §1
In a typical experiment the PDE2 inhibitory activity of the compounds of the present invention was determined in accordance with the following experimental method. Rhesus PDE2A3 was amplified from rhesus macaque brain cDNA (Biochain Institute, Hayward, Calif.) using primers based on human PDE2A sequence (accession NM_002599.3) where the forward primer containing a Kozak consensus was 5′-[…]-3′ and the reverse primer was 5′-[…]-3′. Amplification with Easy-A High-Fidelity PCR cloning enzyme (Stratagene, La Jolla, Calif.) was 95° C. for 2 minutes followed by thirty three cycles of 95° C. for 40 seconds, 52° C. for 30 seconds, and 72° C. for 2 minutes 48 seconds. Final extension was 72° C. for 7 minutes. The PCR product was TA cloned into pcDNA3.3-TOPO (Invitrogen, Carlsbad, Calif.) according to standard protocol. A consensus sequence was developed from multiple clones and then deposited into GenBank (EU812167). AD293 cells (Stratagene, La Jolla, Calif.) with 70-80% confluency were transiently transfected with rhesus PDE2A3/pcDNA3.3-TOPO using Lipofectamine 2000 according to manufacturer specifications (Invitrogen, Carlsbad, Calif.). Cells were harvested 48 hours post-transfection and lysed by sonication (setting 3, 10×5 sec pulses) in a buffer containing 20 mM HEPES pH 7.4, 1 mM EDTA and Complete Protease Inhibitor Cocktail Tablets (Roche, Indianapolis, Ind.). Lysate was collected by centrifugation at 75,000×g for 20 minutes at 4° C. and supernatant utilized for evaluation of PDE2 activity. The fluorescence polarization assay for cyclic nucleotide phosphodiesterases was performed using an IMAP® FP kit supplied by Molecular Devices, Sunnyvale, Calif. (product # R8139). […] Assays were performed at room temperature in 384-well microtiter plates with an incubation volume of 20.2 μL. Solutions of test compounds were prepared in DMSO and serially diluted with DMSO to yield 8 μL of each of 10 solutions differing by 3-fold in concentration, at 32 serial dilutions per plate. […] 0% of inhibition is determined by using DMSO (1% final concentrations).
A Labcyte Echo 555 (Labcyte, Sunnyvale, Calif.) is used to dispense 200 nL from each well of the titration plate to the 384 well assay plate. Ten microliters of a solution of enzyme (1/2000 final dilution from aliquots; sufficient to produce 20% substrate conversion) was added to the assay plate. Next 10 uL of a separate solution of the substrate FAM-labeled cAMP (50 nM final concentration product # R7506 from Molecular Devices) and the activator cGMP (1 uM final concentration), prepared in the assay buffer (10 mM Tris HCl, pH 7.2, 10 mM MgCl2, 0.05% NaN3 0.01% Tween-20, and 1 mM DTT) was added to the assay plate and shaken to mix. The reaction is allowed to proceed at room temperature for 60 minutes. A binding solution is then made from the kit components, comprised of 80% Solution A, 20% Solution B and binding reagent at a volume of 1/600 the total binding solution. The enzymatic reaction is stopped by addition of 60 μL of the binding solution to each well of the assay plates and the plates are sealed and shaken for 30 seconds. The plate was incubated at room temperature for at least one hour prior to determining the fluorescence polarization (FP). The parallel and perpendicular fluorescence of each well of the plate was measured using a Tecan Genios Pro plate reader (Tecan, Switzerland) or Perkin Elmer EnVision™ plate reader (Waltham, Mass.). Fluorescence polarization (mP) was calculated from the parallel (S) and perpendicular (P) fluorescence of each sample well and the analogous values for the median control well, containing only substrate (So and Po), using the following equation: Polarization (mP)=1000*(S/So−P/Po)/(S/So+P/Po).

[3] = LabB, read-out: hPDE2 Ki (nM) LabB
[4] = LabB, read-out: rhPDE2 Ki (nM) LabB
[5] = LabA, read-out: hPDE2 Ki (nM) LabA
[6] = LabA, read-out: rhPDE2 Ki (nM) LabA

Sequence of Rhesus PDE2A3 (B3VTJ2 1-941): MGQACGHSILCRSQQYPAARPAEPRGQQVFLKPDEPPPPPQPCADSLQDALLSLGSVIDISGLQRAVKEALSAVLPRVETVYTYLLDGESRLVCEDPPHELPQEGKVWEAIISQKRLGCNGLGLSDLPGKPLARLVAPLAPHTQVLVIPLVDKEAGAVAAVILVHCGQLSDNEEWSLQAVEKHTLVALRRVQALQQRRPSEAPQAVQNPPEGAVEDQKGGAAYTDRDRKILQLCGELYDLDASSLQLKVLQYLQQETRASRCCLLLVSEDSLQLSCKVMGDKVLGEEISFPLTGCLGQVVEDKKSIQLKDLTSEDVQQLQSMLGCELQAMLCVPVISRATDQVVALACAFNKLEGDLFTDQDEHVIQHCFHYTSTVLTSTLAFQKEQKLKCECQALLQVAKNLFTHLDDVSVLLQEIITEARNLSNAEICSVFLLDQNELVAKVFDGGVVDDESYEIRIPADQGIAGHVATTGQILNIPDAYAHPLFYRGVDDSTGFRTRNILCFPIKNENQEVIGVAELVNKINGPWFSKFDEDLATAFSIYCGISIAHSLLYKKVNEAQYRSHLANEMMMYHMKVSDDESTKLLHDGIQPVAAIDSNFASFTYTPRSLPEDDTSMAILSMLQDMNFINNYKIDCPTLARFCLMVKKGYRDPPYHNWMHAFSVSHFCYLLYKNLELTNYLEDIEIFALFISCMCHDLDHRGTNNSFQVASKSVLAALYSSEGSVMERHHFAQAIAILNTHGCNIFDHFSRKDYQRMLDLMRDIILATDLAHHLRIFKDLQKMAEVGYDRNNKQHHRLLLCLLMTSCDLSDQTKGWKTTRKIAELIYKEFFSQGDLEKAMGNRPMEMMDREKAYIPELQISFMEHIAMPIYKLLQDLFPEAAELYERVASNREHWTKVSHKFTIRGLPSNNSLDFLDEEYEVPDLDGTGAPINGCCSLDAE
Sequence of human PDE2A1 (O00408 other isoform, or with tags, fused parts or gaps): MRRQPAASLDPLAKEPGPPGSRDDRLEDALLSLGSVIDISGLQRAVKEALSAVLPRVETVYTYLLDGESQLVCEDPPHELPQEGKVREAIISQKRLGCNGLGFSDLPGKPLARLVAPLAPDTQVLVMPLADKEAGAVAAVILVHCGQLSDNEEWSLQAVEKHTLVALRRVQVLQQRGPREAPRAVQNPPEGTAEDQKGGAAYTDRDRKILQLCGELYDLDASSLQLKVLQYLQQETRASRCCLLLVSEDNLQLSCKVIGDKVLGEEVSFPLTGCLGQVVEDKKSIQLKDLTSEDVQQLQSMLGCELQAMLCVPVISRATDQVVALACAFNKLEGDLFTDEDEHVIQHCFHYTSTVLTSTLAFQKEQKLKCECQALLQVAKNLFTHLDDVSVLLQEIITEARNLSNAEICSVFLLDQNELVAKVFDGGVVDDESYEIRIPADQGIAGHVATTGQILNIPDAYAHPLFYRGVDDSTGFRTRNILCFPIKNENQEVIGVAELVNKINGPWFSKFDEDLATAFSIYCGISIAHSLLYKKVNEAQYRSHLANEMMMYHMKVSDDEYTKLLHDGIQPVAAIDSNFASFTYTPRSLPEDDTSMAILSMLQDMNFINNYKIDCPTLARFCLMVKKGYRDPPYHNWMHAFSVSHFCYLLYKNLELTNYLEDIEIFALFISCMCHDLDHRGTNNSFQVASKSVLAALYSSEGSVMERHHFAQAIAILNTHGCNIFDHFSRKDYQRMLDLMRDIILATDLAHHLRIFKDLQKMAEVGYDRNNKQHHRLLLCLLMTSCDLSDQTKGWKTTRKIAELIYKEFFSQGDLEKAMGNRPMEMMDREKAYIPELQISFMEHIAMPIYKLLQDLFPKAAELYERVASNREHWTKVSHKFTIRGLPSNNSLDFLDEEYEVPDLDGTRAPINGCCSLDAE

| SMILES | Ki [1, 3] [nM] | Ki [2, 4] [nM] | Ki [1, 5] [nM] | Ki [2, 6] [nM] |
| --- | --- | --- | --- | --- |
| Cc1nc(-c2nnc([C@H](C)c3ccc(C(F)(F)F)cc3F)s2)cc(=O)[nH]1 (single isomer, unassigned) [Example 4] | 22 | 20 |  |  |
| Cc1nc(-c2nnc([C@H](C)c3ccc(C(F)(F)F)cc3F)s2)cc(=O)[nH]1 (single isomer, unassigned) [Example 5] | 18 | 19 |  |  |
| Cc1nc(-c2nnc([C@H](C)c3ccc(C(F)(F)F)cc3)s2)cc(=O)[nH]1 (single isomer, unassigned) [Example 6] | 12 | 13 | 6 | 10 |
| Cc1nc(-c2nnc([C@H](C)c3ccc(C(F)(F)F)cc3)s2)cc(=O)[nH]1 (single isomer, unassigned) [Example 7] | 62 | 57 | 13 | 21 |
| Cc1nc(-c2nnc([C@H](C)c3ccc(C(F)(F)F)cc3)o2)cc(=O)[nH]1 (single isomer, unassigned) [Example 9] |  | 159 | 79 | 86 |
| Cc1nc(-c2cn([C@H](C)c3ccc(C(F)(F)F)cc3F)cn2)cc(=O)[nH]1 (single isomer, unassigned) [Example 15] |  | 46 | 21 | 24 |
| Cc1nc(-c2cc(C(C)c3ccc(OC(F)F)c(F)c3)ncn2)cc(=O)[nH]1 (single isomer, unassigned) [Example 34, (R)- or (S)-6′-(1-(4-(difluoro-methoxy)-3-fluorophenyl)ethyl)-2-methyl-[4,4′-bipyrimidin]-6(1H)-one] | 13 |  |  |  |
| Cc1nc(-c2cc(C(C)c3ccc(OC(F)F)c(F)c3)ncn2)cc(=O)[nH]1 (single isomer, unassigned) [Example 35, (S)- or (R)-6′-(1-(4-(difluoro-methoxy)-3-fluorophenyl)ethyl)-2-methyl-[4,4′-bipyrimidin]-6(1H)-one] | 232 |  |  |  |
| Cc1nc(-c2cc(C(C)c3ccc(C(C)(F)F)cc3)ncn2)cc(=O)[nH]1 (single isomer, unassigned) [Example 36, (R)- or (S)-6′-(1-(4-(1,1-difluoro-ethyl)phenyl)ethyl)-2-methyl-[4,4′-bipyrimidin]-6(1H)-one] | 20 |  |  |  |
| Cc1nc(-c2cc(C(C)c3ccc(C(C)(F)F)cc3)ncn2)cc(=O)[nH]1 (single isomer, unassigned) [Example 37, (S)- or (R)-6′-(1-(4-(1,1-difluoro-ethyl)phenyl)ethyl)-2-methyl-[4,4′-bipyrimidin]-6(1H)-one] | 65 |  |  |  |
| Cc1nc(-c2cc(C(C)c3ccc(C(F)F)c(F)c3)ncn2)cc(=O)[nH]1 (single isomer, unassigned) [Example 38, (R)- or (S)-6′-(1-(4-(difluoro-methyl)-3-fluoro-phenyl)ethyl)-2-methyl-[4,4′-bipyrimidin]-6(1H)-one] | 30 |  |  |  |
| Cc1nc(-c2cc(C(C)c3ccc(C(F)F)c(F)c3)ncn2)cc(=O)[nH]1 (single isomer, unassigned) [Example 39, (S)- or (R)-6′-(1-(4-(difluoro-methyl)-3-fluoro-phenyl)ethyl)-2-methyl-[4,4′-bipyrimidin]-6(1H)-one] | 174 |  |  |  |
| Cc1nc(-c2cc(C(C)c3ccc(OC(F)(F)F)c(F)c3)ncn2)cc(=O)[nH]1 (single isomer, unassigned) [Example 40, (R)- or (S)-6′-(1-(3-fluoro-4-(trifluoro-methoxy)phenyl)ethyl)-2-methyl-[4,4′-bipyrimidin]-6(1H)-one] | 1.8 |  |  |  |
| Cc1nc(-c2cc(C(C)c3ccc(OC(F)(F)F)c(F)c3)ncn2)cc(=O)[nH]1 (single isomer, unassigned) [Example 41, (S)- or (R)-6′-(1-(3-fluoro-4-(trifluoro-methoxy)phenyl)ethyl)-2-methyl-[4,4′-bipyrimidin]-6(1H)-one] | 212 |  |  |  |
| Cc1nc(-c2cc(C(C)c3ccc(OC(F)(F)F)cc3)ncn2)cc(=O)[nH]1 (single isomer, unassigned) [Example 44, (R)- or (S)-2-methyl-6′-(1-(4-(trifluoro-methoxy)phenyl)ethyl)-[4,4′-bipyrimidin]-6(1H)-one] | 4.1 |  |  |  |
| Cc1nc(-c2cc(C(C)c3ccc(OC(F)(F)F)cc3)ncn2)cc(=O)[nH]1 (single isomer, unassigned) [Example 45, (S)- or (R)-2-methyl-6′-(1-(4-(trifluoro-methoxy)phenyl)ethyl)-[4,4′-bipyrimidin]-6(1H)-one] | 194 |  |  |  |
| Cc1nc(-c2cc([C@H](C)c3ccc(C(C)(C)O)cc3)ncn2)cc(=O)[nH]1 (single isomer, unassigned) [Example 46] | 890 |  |  |  |
| Cc1nc(-c2cc([C@H](C)c3ccc(C(C)(C)O)cc3)ncn2)cc(=O)[nH]1 (single isomer, unassigned) [Example 47] | 1720 |  |  |  |
